Measured values taken from patent publication US7939657B2, “N-substituted benzene sulfonamides” (Elan Pharmaceuticals, Inc., priority 2003, dated 2011).

What follows are compounds tested on gamma secretase cleavage of NotchΔE (constitutively active rat Notch1 construct ZEDN1) (assay: Notch signaling assay for selective inhibitors of gamma secretase (4xwtCBF1 Luciferase reporter gene co-transfected with NotchΔE ZEDN1)). Conditions: 'the above assay' (reporter gene based Notch signaling assay), ranges stated as 'from about'.
Type: cell-based
Description: “A presenilin-1-dependent gamma-secretase-like protease mediates release of Notch intracellular domain.” Nature 398(6727): 518-22; Mumm, J. S., E. H. Schroeter, M. T. Saxena, A. Griesemer, X. Tian, D. J. Pan, W. J. Ray and R. Kopan (2000). “A ligand-induced extracellular cleavage regulates gamma-secretase-like proteolytic activation of Notch1.” Mol Cell 5(2): 197-206; Zhang, Z., P. Nadeau, W. Song, D. Donoviel, M. Yuan, A. Bernstein and B. A. Yankner (2000). “Presenilins are required for gamma-secretase cleavage of beta-APP and transmembrane cleavage of Notch-1.” Nat Cell Biol 2(7): 463-5). Cleavage of APP by gamma secretase leads to β-amyloid synthesis. Cleavage of Notch1 by gamma secretase results in release of the Notch intracellular domain (NICD), which translocates to the nucleus and activates gene expression (Jarriault, S., C. Brou, F. Logeat, E. H. Schroeter, R. Kopan and A. Israel (1995). “Signalling downstream of activated mammalian Notch.” Nature 377(6547): 355-8; Kopan, R., E. H. Schroeter, H. Weintraub and J. S. Nye (1996). “Signal transduction by activated Notch: importance of proteolytic processing and its regulation by the extracellular domain.” Proc Natl Acad Sci USA 93(4): 1683-8; Schroeter, E. H., J. A. Kisslinger and R. Kopan (1998). “Notch-1 signalling requires ligand-induced proteolytic release of intracellular domain.” Nature 393(6683): 382-6). In particular, Notch signaling activates transcription of the mammalian homolog of the Drosophila transcription factor hairy-enhancer of split (Hes). Transcriptional activation of Hes1 is mediated by de-repression of CBF1/RBPJk upon binding by NICD in the nucleus. These facts have been exploited to develop a reporter gene assay for Notch Signaling Hsieh, J. J., T. Henkel, P. Salmon, E. Robey, M. G. Peterson and S. D. Hayward (1996). “Truncated mammalian Notch1 activates CBF1/RBPJk-repressed genes by a mechanism resembling that of Epstein-Barr virus EBNA2.” Mol Cell Biol 16(3): 952-9; Lu, F. M. and S. E. Lux (1996). “Constitutively active human Notch1 binds to the transcription factor CBF1 and stimulates transcription through a promoter containing a CBF1-responsive element.” Proc Natl Acad Sci USA 93(11): 5663-7).
Due to the importance of Notch signaling in cell fate determination, and tissue differentiation during both development and in the adult, inhibition of Notch signaling by gamma secretase inhibitors is postulated to be a limiting factor in their therapeutic utility. […] “Notch signaling inhibits muscle cell differentiation through a CBF1-independent pathway.” Development 122(12): 3765-73 in combination with the CBF1 repressible Luciferase reporter gene 4xwtCBF1Luc (Hsieh, J. J., et al., (1996). Mol Cell Biol 16(3): 952-9).
When 4xwtCBF1 Luciferase is co-transfected with NotchΔE (ZEDN1), γ-secretase cleavage of NotchΔE releases the Notch intracellular domain (NICD), which translocates to the nucleus and de-represses CBF1mediated transcriptional repression, leading to transcription of the Luciferase reporter gene. Luciferase activity is easily assayed in cell extracts using commercially available kits. The activity of the reporter gene is directly correlated with gamma secretase cleavage of NotchΔE, and as such, a reduction in Luciferase activity provides a convenient measure of inhibition of gamma secretase cleavage of NotchΔE.

Compound	IC50 [nM]
CCN(C(=O)c1ccc(CN([C@@H]2CCCCNC2=O)S(=O)(=O)c2ccc(Cl)cc2)cc1)C1CCCCC1 [Compound 609, 4-({[(4-chlorophenyl)sulfonyl][(3R)-2-oxoazepan-3-yl]amino}methyl)-N-cyclohexyl-N-ethylbenzamide]	100 to 1000
C[C@@H](NC(=O)c1ccc(CN([C@@H]2CCCCNC2=O)S(=O)(=O)c2ccc(Cl)cc2)cc1)c1ccccc1 [Compound 537, 4-({[(4-chlorophenyl)sulfonyl][(3R)-2-oxoazepan-3-yl]amino}methyl)-N-[(1R)-1-phenylethyl]benzamide]	0.1 to 25
CC(NC(=O)c1ccc(CN([C@@H]2CCCCNC2=O)S(=O)(=O)c2ccc(Cl)cc2)cc1)c1cccnc1 (stereo partly drawn) [Compound 636, 4-({[(4-chlorophenyl)sulfonyl][(3R)-2-oxoazepan-3-yl]amino}methyl)-N-(1-pyridin-3-ylethyl)benzamide]	25 to 100
C=C(CC)CN(C1CCCCNC1=O)S(=O)(=O)c1ccc(Cl)cc1 (stereo not drawn) [Compound 66, 4-Chloro-N-(2-ethyl-allyl)-N-(2-oxo-azepan-3-yl)-benzenesulfonamide]	100 to 1000
O=C1NCCCC[C@H]1N(Cc1ccc(-c2nnc(-c3ccccc3)o2)cc1)S(=O)(=O)c1ccc(Cl)cc1 [Compound 672]	> 1000
CC[C@@H](NC(=O)c1ccc(CN([C@@H]2CCCCNC2=O)S(=O)(=O)c2ccc(Cl)cc2)cc1)c1ccccc1 [Compound 553, 4-({[(4-chlorophenyl)sulfonyl][(3R)-2-oxoazepan-3-yl]amino}methyl)-N-[(1R)-1-phenylpropyl]benzamide]	25 to 100
O=C1c2ccccc2C(=O)C1CCCCN([C@@H]1CCCCNC1=O)S(=O)(=O)c1ccc(Cl)cc1 [Compound 108, 4-chloro-N-[4-(1,3-dioxo-2,3-dihydro-1H-inden-2-yl)butyl]-N-[(3R)-2-oxoazepan-3-yl]benzenesulfonamide]	100 to 1000
COC(=O)c1ccc(CN([C@@H]2CCCCNC2=O)S(=O)(=O)c2ccc(Cl)cc2)cc1 [Compound 275, methyl 4-({[(4-chlorophenyl)sulfonyl][(3R)-2-oxoazepan-3-yl]amino}methyl)benzoate]	0.1 to 25
O=C1NCCCC[C@H]1N(Cc1ccc2ccccc2c1)S(=O)(=O)c1ccc(Cl)cc1 [Compound 227, 4-chloro-N-(2-naphthylmethyl)-N-[(3R)-2-oxoazepan-3-yl]benzenesulfonamide]	25 to 100
O=C(CCCc1ccccc1)Nc1ccc(CN([C@@H]2CCCCNC2=O)S(=O)(=O)c2ccc(Cl)cc2)cc1F [Compound 505, N-[4-({[(4-chlorophenyl)sulfonyl][(3R)-2-oxoazepan-3-yl]amino}methyl)-2-fluorophenyl]-4-phenylbutanamide]	100 to 1000
COc1ccc(CN(C2CCCCNC2=O)S(=O)(=O)c2ccc(C(C)(C)C)cc2)cc1OC (stereo not drawn) [Compound 14, 4-tert-Butyl-N-(3,4-dimethoxy-benzyl)-N-(2-oxo-azepan-3-yl)-benzenesulfonamide]	> 1000
O=C1NCCCC[C@H]1N(Cc1ccc(-c2nnn[nH]2)cc1)S(=O)(=O)c1ccc(Cl)cc1 [Compound 663]	25 to 100
O=C1NCCCCC1N(Cc1ccc2c(c1)OCO2)S(=O)(=O)c1ccc(Cl)cc1 (stereo not drawn) [Compound 249, N-Benzo[1,3]dioxol-5-ylmethyl-4-chloro-N-(2-oxo-azepan-3-yl)-benzenesulfonamide]	0.1 to 25
O=C1NCC[C@H]1N(Cc1ccc(F)cc1F)S(=O)(=O)c1ccc(Cl)cc1 [Compound 148, 4-chloro-N-(2,4-difluorobenzyl)-N-[(3R)-2-oxopyrrolidin-3-yl]benzenesulfonamide]	> 1000
O=C1NCCCC[C@H]1N(CCCOCc1ccccc1)S(=O)(=O)c1ccc(Cl)cc1 [Compound 89, N-[3-(benzyloxy)propyl]-4-chloro-N-[(3R)-2-oxoazepan-3-yl]benzenesulfonamide]	> 1000
O=C1NCCCCC1N(Cc1ccc(Br)s1)S(=O)(=O)c1ccc(Cl)cc1 (stereo not drawn) [Compound 160, N-(5-Bromo-thiophen-2-ylmethyl)-4-chloro-N-(2-oxo-azepan-3-yl)-benzenesulfonamide]	100 to 1000
CC(C)CNC(=O)c1ccc(CN([C@@H]2CCCCNC2=O)S(=O)(=O)c2ccc(Cl)cc2)cc1 [Compound 486, 4-({[(4-chlorophenyl)sulfonyl][(3R)-2-oxoazepan-3-yl]amino}methyl)-N-isobutylbenzamide]	25 to 100
O=C1NCCCCC1N(Cc1cccn1S(=O)(=O)c1ccccc1)S(=O)(=O)c1ccc(Cl)cc1 (stereo not drawn) [Compound 206, N-(1-Benzenesulfonyl-1H-pyrrol-2-ylmethyl)-4-chloro-N-(2-oxo-azepan-3-yl)-benzenesulfonamide]	> 1000
CSc1ccc(CN(C2CCCCNC2=O)S(=O)(=O)c2ccc(Cl)cc2)cc1 (stereo not drawn) [Compound 269, 4-Chloro-N-(4-methylsulfanyl-benzyl)-N-(2-oxo-azepan-3-yl)-benzenesulfonamide]	0.1 to 25
O=C(NCc1ccccc1OC(F)(F)F)c1ccc(CN([C@@H]2CCCCNC2=O)S(=O)(=O)c2ccc(Cl)cc2)cc1 [Compound 579, 4-({[(4-chlorophenyl)sulfonyl][(3R)-2-oxoazepan-3-yl]amino}methyl)-N-[2-(trifluoromethoxy)benzyl]benzamide]	100 to 1000
NC(=O)CN(C1CCCCNC1=O)S(=O)(=O)c1ccc(Cl)cc1 (stereo not drawn) [Compound 338, 2-[(4-Chloro-benzenesulfonyl)-(2-oxo-azepan-3-yl)-amino]-acetamide]	> 1000
O=C1NCCCC[C@H]1N(Cc1ccc(C(=O)N(Cc2cccnc2)Cc2cccnc2)cc1)S(=O)(=O)c1ccc(Cl)cc1 [Compound 613, 4-({[(4-chlorophenyl)sulfonyl][(3R)-2-oxoazepan-3-yl]amino}methyl)-N,N-bis(pyridin-3-ylmethyl)benzamide]	> 1000
O=C(NCc1cccnc1)c1ccc(CN([C@@H]2CCCCNC2=O)S(=O)(=O)c2ccc(Cl)cc2)cc1 [Compound 593, 4-({[(4-chlorophenyl)sulfonyl][(3R)-2-oxoazepan-3-yl]amino}methyl)-N-(pyridin-3-ylmethyl)benzamide]	0.1 to 25
O=C1NCCCC[C@H]1N(Cc1ccc2c(c1)OCCO2)S(=O)(=O)c1ccc(Cl)cc1 [Compound 77, 4-chloro-N-(2,3-dihydro-1,4-benzodioxin-6-ylmethyl)-N-[(3R)-2-oxoazepan-3-yl]benzenesulfonamide]	0.1 to 25
